Source: US10201528B2, “Method of treating multiple sclerosis” (Assistance Publique Hopitaux De Paris, priority 2012, dated 2019)
Entries after “also recorded” stand apart in the source; their conditions may differ.

What was measured:
multiple sclerosis = details: attacks less numerous and less severe, improvement of lesions visible by MRI; cited from earlier work
[1] = test system: patients with a progressive form of multiple sclerosis; assay: Clinical cases: patients with progressive multiple sclerosis treated with biotin; type: in vivo, human
Experimental: Three patients with a progressive form of multiple sclerosis received biotin. […]
A person, without any particular personal history. […] Treatment with interferon Ib (betaferon) began in February 2008.
Three Solumedrol infusions were carried out in September 2010 and then 4 infusions between 8 and 11 Aug.
Treatment with biotin was then introduced on 6 Mar. 2012 at the dose of 100 mg/day until March 30 and then 200 mg/day from April 6 to 6 May 2012 then 300 mg/day from 6 May 2012 to 7 Jun. 2012. Two complete ophthalmological examinations were carried out during this period of time: a first on 30 Mar. […]

[2] = patient 1, after six months of treatment
[3] = patient 1, biotin 100 mg three times a day, three months

glatiramer acetate
efficacy in multiple sclerosis (multiple sclerosis): proven to be effective

C[C@H]1C[C@@H]2[C@H]([C@@H](O)C[C@@]3(C)[C@H]2CC[C@]3(O)C(=O)COC(=O)CCC(=O)O)[C@@]2(C)C=CC(=O)C=C12 [Solumedrol]
diplopia-type attack ([1]; patient 2, July 2008, infusions): regressive | progressive decrease in visual acuity ([1]; patient 2, three infusions September 2010 and 4 infusions 8-11 Aug. 2011, before biotin): without any effect | evolvement of left homonymous lateral hemianopsia ([1]; patient 3, 2004, after 3 infusions, symptomology subsequently reappeared): initially been favourable

O=C(O)CCCC[C@@H]1SC[C@@H]2NC(=O)N[C@@H]21 [biotin]
brain MRI spectro: choline peak and choline/creatine ratio [1, 2]: clear decrease | visual evoked potentials: P100 wave on the right [1, 2]: beginnings of a P100 wave on the right | visual evoked potentials: latency of left P100 wave ([1]; patient 1, biotin 100 mg three times a day, after six months of treatment): 111.8 ms | MRI and brain MRI spectro [1, 3]: unchanged | balance [1, 3]: more assured | visual evoked potentials: P100 wave on the left [1, 3]: reappearance of a P100 wave on the left | visual evoked potentials: P100 wave on the right [1, 3]: no response was noted on the right | visual evoked potentials: latency of left P100 wave [1, 3]: 126.5 ms | visual acuity on the left ([1]; patient 1, biotin 100 mg three times a day, three months later (before treatment 2/10 on the left)): 2/10 | visual acuity on the right ([1]; patient 1, biotin 100 mg three times a day, three months later (before treatment could only count fingers on the right)): 5/10 | visual evoked potentials: P100 wave ([1]; patient 1, biotin increased to 600 mg/day, after nine months of treatment): bilateral P100 wave was noted | motor problems ([1]; patient 1, discussion): corrected and were stabilized | balance between beginning of treatment and last visit ([1]; patient 1, long-term treatment): also remained stable | visual acuity between beginning of treatment and last visit ([1]; patient 1, long-term, 300 mg/day for 15 months then 100 mg/day for 9 months): remained stable | visual acuity compared with examination before treatment ([1]; patient 2, biotin 100 mg/day from 6 Mar. 2012, examination 30 Mar. 2012): no improvement | visual field (automated campimetry): homonymous lateral hemianopsia ([1]; patient 3, biotin 100 mg/day begun 12 Apr. 2012, examination 30 Jun. 2012): improvement in the visual field in the upper left quadrant; also recorded: clear improvement | time to improvement after introduction of the treatment ([1]; the three patients): within three months
